We go through 25 molecules from ChEMBL document CHEMBL2069214, “Discovery of triazolopyrimidine-based PDE8B inhibitors: exceptionally ligand-efficient and lipophilic ligand-efficient compounds for the treatment of diabetes” (Bioorg Med Chem Lett, 2012).

By clearance is commonly meant a measure of how efficiently the substance is removed, as volume per time. Read a high clearance as a high capacity for elimination. One may read the bioavailability as dose-corrected exposure relative to a reference, in per cent. In general, inhibition refers to the share of the control response that was lost under treatment. Higher therefore signals a strong effect. Usually IC50 stands for the midpoint of a concentration-inhibition curve. As a reminder, the solubility is the dissolved amount per volume that the medium holds. Lower therefore signals little dissolved substance. In general, pKa refers to the pH at which an ionisable group is half protonated. The term efflux ratio denotes the permeability from basolateral to apical divided by that in the opposite direction, in the common usage. A word on the fraction unbound: it is free concentration divided by total concentration. Read a high fraction unbound as much free substance.

Data set [1] is described as follows: Clearance in iv dosed rat. The class given is ADME, organism-based. The note with it: in vivo.
Data set [2] is described as follows: (§1) Intrinsic clearance in rat liver microsomes. The class given is ADME, Microsome. The note with it: liver microsomes, read-out: CLH.
The nature of data set [3]: Intrinsic clearance in human liver microsomes. The class given is ADME, Microsome. The note with it: read-out: CLH. In general terms: Liver microsomes are vesicles of endoplasmic reticulum, rich in cytochrome P450 enzymes.
Data set [4] can be described thus: Oral bioavailability in rat. The note with it: in vivo. The class given is ADME, organism-based.
Data set [5] in a line: Clearance in iv dosed dog. The class given is ADME, organism-based, Canis lupus familiaris. Particulars: in vivo.
Data set [6] in a line: Genotoxicity in micronucleus.
The subject of another data set is Salmonella typhimurium. The data set can be described thus: Genotoxicity in Salmonella typhimurium. The class given is toxicity, organism-based. Particulars: salmonella enterica subsp. enterica serovar typhimurium.
The next data set has as its system Liver microsomes. The data set is described as §1. The class given is ADME, Microsome. The note with it: microsomes.
Data set [7] addresses 3',5'-cyclic-AMP phosphodiesterase 4D (Homo sapiens) (UniProt Q08499). The data set is described as follows: Inhibition of PDE4D at 1 uM.
For data set [8], the target named is 3',5'-cyclic-AMP phosphodiesterase 4C (Homo sapiens) (UniProt Q08493). The data set is described as follows: Inhibition of PDE4C at 1 uM.
Sequence of 3',5'-cyclic-AMP phosphodiesterase 4C (Homo sapiens) (Q08493 whole entry): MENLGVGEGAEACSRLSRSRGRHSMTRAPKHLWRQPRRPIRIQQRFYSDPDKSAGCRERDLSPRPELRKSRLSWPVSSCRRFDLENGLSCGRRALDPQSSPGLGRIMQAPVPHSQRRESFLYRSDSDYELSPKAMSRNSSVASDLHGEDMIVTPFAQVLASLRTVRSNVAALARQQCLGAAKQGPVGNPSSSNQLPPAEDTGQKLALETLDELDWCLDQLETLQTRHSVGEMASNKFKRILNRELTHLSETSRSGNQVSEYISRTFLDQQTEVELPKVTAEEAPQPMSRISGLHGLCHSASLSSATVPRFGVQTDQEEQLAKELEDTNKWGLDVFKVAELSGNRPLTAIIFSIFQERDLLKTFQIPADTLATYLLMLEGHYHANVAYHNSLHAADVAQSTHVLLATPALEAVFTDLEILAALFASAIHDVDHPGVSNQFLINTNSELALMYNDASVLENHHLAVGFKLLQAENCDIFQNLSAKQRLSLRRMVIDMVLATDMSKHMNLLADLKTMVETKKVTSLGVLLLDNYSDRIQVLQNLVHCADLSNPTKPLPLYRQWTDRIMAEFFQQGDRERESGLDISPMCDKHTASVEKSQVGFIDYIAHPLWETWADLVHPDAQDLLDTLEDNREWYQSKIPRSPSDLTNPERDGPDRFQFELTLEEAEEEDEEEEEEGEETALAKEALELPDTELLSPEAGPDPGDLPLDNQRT
Data set [9] concerns the target High affinity cAMP-specific and IBMX-insensitive 3',5'-cyclic phosphodiesterase 8B (Homo sapiens, UniProt O95263). The data set is described as follows: Inhibition of PDE8B expressed in Sf9 insect cells.
A short description of data set [10]: Solubility of the compound. The class given is physicochemical.
A short description of data set [11]: Volume of distribution at steady state in iv dosed dog. The class given is ADME, organism-based, Canis lupus familiaris. The note with it: in vivo, read-out: Vdss.
Data set [12] is described as follows: Volume of distribution at steady state in iv dosed rat. The class given is ADME, organism-based. The note with it: in vivo, read-out: Vdss.
Data set [13] in a line: Oral bioavailability in dog. The note with it: in vivo. The class given is ADME, organism-based, Canis lupus familiaris.
The species entered for data set [14] is Canis familiaris. The data set is described as follows: Cardiotoxicity in dog assessed as increase in heart rate at > 10 times IC50. The class given is toxicity, organism-based, Canis lupus familiaris. The note with it: in vivo.
Data set [15] is described as follows: Dissociation constant, pKa of the compound. The class given is physicochemical.
Data set [16] is described as follows: Solubility of the compound at pH 7.4. The class given is physicochemical. Particulars: buffer.
Data set [17] is described as follows: Solubility of the compound at pH 4. The class given is physicochemical. The note with it: buffer.
Data set [18] addresses High affinity cAMP-specific and IBMX-insensitive 3',5'-cyclic phosphodiesterase 8A (Homo sapiens, UniProt O60658). The data set can be described thus: Inhibition of PDE8A.
Data set [19] is filed under the species Homo sapiens. The data set can be described thus: Inhibition of PDE.
The target of data set [20] is Kappa-type opioid receptor (Homo sapiens) (UniProt P41145). The data set is described as follows: Inhibition of kappa opioid receptor.
Sequence of Kappa-type opioid receptor (Homo sapiens) (P41145 whole entry): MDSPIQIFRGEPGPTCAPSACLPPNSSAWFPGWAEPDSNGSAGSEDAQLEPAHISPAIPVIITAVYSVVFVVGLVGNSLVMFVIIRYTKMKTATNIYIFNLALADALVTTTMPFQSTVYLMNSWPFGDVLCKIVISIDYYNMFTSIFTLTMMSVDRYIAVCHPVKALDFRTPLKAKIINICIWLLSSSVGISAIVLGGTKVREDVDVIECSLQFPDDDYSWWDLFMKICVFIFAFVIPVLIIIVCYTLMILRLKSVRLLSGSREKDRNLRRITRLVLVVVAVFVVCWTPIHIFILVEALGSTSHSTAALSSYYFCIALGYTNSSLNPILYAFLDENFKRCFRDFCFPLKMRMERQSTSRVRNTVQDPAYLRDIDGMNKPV
Data set [21] concerns the target Voltage-gated inwardly rectifying potassium channel KCNH2 (Homo sapiens, UniProt Q12809). The data set is described as follows: Inhibition of human ERG.
Data set [22] in a line: Efflux ratio of permeability of the compound across MDCK cells. The class given is ADME, cell-based, Canis lupus familiaris. The note with it: dog.
A short description of data set [23]: Fraction unbound in rat plasma. The class given is ADME, cell-free.
Data set [24] in a line: Fraction unbound in dog plasma. The class given is ADME, cell-free, Canis lupus familiaris.
Data set [25] in a line: Fraction unbound in human plasma. The class given is ADME, cell-free.
Data set [26] is filed under the species Homo sapiens. The data set is described as follows: Selectivity ratio for PDE to PDE8B.
A further data set has as its system Pancreatic islet. The data set is described as follows: Induction of insulin secretion in human pancreatic islet cells at 0.001 to 100 uM in presence of glucose. The class given is functional.
The species named for data set [27] is Canis familiaris. The data set can be described thus: Cardiotoxicity in dog assessed as increase in blood pressure at > 10 times IC50. The class given is toxicity, organism-based, Canis lupus familiaris.

≈ marks a conversion by molar mass, not a printed value. Calls of active or inactive are those of the source. No cut-off for these calls is given here.

Sequence of High affinity cAMP-specific and IBMX-insensitive 3',5'-cyclic phosphodiesterase 8B (O95263 whole entry): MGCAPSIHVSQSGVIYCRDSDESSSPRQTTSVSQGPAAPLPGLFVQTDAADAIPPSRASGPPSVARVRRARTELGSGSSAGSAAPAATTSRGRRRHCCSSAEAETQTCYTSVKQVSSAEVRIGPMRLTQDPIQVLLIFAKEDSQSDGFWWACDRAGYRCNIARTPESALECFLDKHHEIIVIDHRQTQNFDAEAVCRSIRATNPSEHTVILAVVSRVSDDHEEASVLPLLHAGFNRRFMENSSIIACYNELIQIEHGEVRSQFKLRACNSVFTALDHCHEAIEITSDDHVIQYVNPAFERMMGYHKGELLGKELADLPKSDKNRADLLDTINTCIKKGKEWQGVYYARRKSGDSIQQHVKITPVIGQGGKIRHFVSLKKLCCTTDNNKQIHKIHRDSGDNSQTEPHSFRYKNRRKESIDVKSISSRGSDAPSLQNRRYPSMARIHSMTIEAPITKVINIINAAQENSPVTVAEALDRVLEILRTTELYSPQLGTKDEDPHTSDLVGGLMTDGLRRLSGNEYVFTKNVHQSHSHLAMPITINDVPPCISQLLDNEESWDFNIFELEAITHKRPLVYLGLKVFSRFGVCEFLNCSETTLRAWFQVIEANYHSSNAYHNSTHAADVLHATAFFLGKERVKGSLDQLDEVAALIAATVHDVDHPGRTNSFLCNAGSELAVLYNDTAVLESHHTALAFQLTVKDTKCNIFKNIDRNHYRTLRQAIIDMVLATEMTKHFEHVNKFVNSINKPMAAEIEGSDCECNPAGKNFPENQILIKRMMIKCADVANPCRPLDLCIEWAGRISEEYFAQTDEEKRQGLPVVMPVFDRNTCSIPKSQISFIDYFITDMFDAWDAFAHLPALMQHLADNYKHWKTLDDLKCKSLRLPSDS
Sequence of 3',5'-cyclic-AMP phosphodiesterase 4D (Homo sapiens) (Q08499 whole entry): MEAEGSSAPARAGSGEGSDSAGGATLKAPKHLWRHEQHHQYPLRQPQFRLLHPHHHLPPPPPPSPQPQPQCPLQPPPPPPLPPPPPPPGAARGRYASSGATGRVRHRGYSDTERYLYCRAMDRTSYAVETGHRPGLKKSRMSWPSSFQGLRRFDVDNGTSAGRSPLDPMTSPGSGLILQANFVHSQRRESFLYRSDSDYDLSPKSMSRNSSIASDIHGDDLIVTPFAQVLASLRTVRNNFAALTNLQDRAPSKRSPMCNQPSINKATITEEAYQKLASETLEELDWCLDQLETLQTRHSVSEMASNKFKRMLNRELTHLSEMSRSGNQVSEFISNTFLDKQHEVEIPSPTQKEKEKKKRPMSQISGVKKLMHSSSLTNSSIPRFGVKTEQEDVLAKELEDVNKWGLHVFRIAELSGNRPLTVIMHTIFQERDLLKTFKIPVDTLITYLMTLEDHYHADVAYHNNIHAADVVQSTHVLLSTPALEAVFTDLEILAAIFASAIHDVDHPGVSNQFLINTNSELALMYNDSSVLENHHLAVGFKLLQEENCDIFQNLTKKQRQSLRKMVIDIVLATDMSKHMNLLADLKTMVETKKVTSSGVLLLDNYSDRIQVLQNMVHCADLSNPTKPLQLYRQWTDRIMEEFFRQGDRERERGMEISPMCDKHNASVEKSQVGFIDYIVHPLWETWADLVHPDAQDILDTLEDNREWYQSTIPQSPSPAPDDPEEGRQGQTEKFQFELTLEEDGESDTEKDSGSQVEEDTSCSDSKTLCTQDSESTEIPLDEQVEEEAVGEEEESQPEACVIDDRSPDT
Sequence of High affinity cAMP-specific and IBMX-insensitive 3',5'-cyclic phosphodiesterase 8A (O60658 whole entry): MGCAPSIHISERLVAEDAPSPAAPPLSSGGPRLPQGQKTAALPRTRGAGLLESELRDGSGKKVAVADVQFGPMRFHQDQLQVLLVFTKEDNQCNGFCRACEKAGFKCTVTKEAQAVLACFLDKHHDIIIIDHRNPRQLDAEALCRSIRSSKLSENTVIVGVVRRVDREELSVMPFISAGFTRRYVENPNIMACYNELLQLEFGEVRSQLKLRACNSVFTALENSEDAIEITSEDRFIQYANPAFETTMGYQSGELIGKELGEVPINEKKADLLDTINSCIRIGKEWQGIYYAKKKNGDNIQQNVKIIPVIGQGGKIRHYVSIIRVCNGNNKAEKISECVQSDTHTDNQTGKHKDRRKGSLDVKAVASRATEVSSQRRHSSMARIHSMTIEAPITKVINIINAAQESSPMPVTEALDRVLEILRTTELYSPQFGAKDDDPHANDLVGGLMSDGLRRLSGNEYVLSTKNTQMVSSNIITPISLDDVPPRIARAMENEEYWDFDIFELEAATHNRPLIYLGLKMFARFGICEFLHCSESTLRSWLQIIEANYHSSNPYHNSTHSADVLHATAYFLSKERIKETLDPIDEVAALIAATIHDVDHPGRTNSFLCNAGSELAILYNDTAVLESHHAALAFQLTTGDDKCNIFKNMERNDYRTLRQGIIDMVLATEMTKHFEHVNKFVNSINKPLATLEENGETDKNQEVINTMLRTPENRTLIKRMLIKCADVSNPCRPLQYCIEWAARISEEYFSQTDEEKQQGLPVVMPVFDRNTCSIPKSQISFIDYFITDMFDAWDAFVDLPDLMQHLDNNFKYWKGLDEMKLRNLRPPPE
Sequence of Voltage-gated inwardly rectifying potassium channel KCNH2 (Q12809 whole entry): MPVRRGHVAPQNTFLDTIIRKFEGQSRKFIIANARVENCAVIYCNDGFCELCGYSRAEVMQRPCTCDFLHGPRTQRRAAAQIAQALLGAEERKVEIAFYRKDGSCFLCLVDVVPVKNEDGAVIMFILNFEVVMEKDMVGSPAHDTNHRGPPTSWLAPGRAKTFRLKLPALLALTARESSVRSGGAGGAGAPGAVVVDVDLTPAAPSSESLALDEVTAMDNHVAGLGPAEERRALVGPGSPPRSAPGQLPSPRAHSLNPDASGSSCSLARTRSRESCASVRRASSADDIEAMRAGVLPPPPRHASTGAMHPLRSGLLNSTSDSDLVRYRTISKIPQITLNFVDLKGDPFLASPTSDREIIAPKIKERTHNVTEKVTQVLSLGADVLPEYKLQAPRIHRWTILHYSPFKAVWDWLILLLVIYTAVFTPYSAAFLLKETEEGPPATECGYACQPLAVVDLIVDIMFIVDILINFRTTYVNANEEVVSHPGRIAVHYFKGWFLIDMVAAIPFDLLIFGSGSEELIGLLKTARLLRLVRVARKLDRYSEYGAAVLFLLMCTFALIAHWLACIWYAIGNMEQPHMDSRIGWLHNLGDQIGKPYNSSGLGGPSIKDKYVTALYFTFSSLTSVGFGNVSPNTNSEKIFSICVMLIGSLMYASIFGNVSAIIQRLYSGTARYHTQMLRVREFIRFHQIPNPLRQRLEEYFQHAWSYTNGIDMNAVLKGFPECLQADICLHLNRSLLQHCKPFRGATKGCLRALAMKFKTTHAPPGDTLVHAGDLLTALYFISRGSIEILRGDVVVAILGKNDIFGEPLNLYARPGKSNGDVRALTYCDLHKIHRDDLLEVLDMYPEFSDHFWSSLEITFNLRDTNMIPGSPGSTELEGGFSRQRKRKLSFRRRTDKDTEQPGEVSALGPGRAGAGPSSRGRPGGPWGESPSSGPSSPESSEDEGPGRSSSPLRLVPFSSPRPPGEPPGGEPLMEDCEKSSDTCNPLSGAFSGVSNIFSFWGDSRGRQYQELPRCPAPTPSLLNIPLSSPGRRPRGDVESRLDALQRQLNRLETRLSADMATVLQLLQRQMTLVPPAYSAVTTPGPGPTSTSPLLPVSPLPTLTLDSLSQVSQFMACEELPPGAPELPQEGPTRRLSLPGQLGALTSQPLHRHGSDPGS

Take `Cc1nc(N)c2nnn(C[C@H]3CN(Cc4cc(F)cc(F)c4)CCO3)c2n1`: the figures for the clearance in [1] and in data set [5] were 28 mL/min/kg and 4.8 mL/min/kg, respectively. The microsomal CLint stood at 80 µL/min/mg in [2] and 36 µL/min/mg in [3]. The same molecule registered a bioavailability in data set [4] of 12%. For the same molecule, the Activity entry (in data set [6]; with Salmonella typhimurium) was “Non-toxic” throughout.
With `Nc1nc(C2CC2)nc2c1nnn2C[C@H]1CCCO1`, the microsomal CLint in [2] was below 28 µL/min/mg; in [3], 11.9 µL/min/mg.
For the molecule `Nc1nc(C2CC2)nc2c1nnn2Cc1cc(C2CC2)n[nH]1`, the microsomal CLint in data set [3] is below 7.2 µL/min/mg.
`Nc1nc(C2CC2)nc2c1nnn2CC1CCCCO1` (centres undefined): the microsomal CLint was 93 µL/min/mg in the data set with Liver microsomes and below 7.2 µL/min/mg in [3].
As for `Nc1nc(-c2ccccc2)nc2c1nnn2CC1CCCCO1` (centres undefined), in data set [3], the microsomal CLint turned out to be 17 µL/min/mg.
Regarding `Nc1nc(C2CC2)nc2c1nnn2CC1CCCN(Cc2ccccc2)C1` (centres undefined), the inhibition in data set [7] turned out to be 64%; in data set [8], 60%. The molecule also showed an IC50 in data set [9] of 3620 nM. Further, the microsomal CLint in data set [3] worked out at 150 µL/min/mg.
Consider `Nc1nc(C2CC2)nc2c1nnn2CC1CCCOC1` (centres undefined), for which the values for the microsomal CLint in data set [2] and in data set [3] were 35 µL/min/mg and below 7.2 µL/min/mg, respectively.
Consider `Nc1nc(C2CC2)nc2c1nnn2CC1CN(Cc2ccccc2)CCO1` (centres undefined), for which the solubility result in [10] is “soluble”.
On to `CCc1nc(Cn2nnc3c(N)nc(C4CC4)nc32)cs1`, for which the Vd in [11] was 0.9 L/kg; in data set [12], 5.5 L/kg. The figures for the clearance in data set [1] and in [5] were 29 mL/min/kg and 11 mL/min/kg, respectively. Further, the microsomal CLint in [2] was below 14 µL/min/mg; in data set [3], 24.6 µL/min/mg. Also, the bioavailability in data set [4] and in data set [13] was below 5% in each case.
With `Cc1ccnc(N2CCCC(Cn3nnc4c(N)nc(C5CC5)nc43)C2)n1` (centres undefined), the values for the microsomal CLint in [2] and in [3] were 625 µL/min/mg and 303 µL/min/mg, respectively.
On to `Nc1nc(C2CCCCC2)nc2c1nnn2CC1CCCCO1` (centres undefined), for which the microsomal CLint in [3] was found to be 100 µL/min/mg.
The molecule `Nc1nc(C2CC2)nc2c1ncn2C[C@H]1CCCO1` returned an IC50 in [9] above 2000 nM.
As for `Cc1nc(N)c2nnn(C[C@H]3CN(Cc4nccs4)CCO3)c2n1`, the Activity result is reported as “Toxic” in the data set listed under Canis familiaris [14], “Non-toxic” in data set [6], “Non-toxic” with Salmonella typhimurium and “Toxic” in the data set filed under Canis familiaris [27]. The values for the clearance in data set [1] and in [5] were 23 mL/min/kg and 3.5 mL/min/kg, respectively. Further, the microsomal CLint in data set [2] is below 14 µL/min/mg; in data set [3] it was below 8 µL/min/mg. In addition, the 50% inhibitory concentration (IC50) was 1.3 nM in data set [9], 1.9 nM in [18] and above 100000 nM in data set [21]. Further, the results for the bioavailability in data set [4] and in [13] were 63% and 100%, respectively. The same molecule registered a pKa in data set [15] of 4.9. The solubility in [16] worked out at 150 µg/mL (≈ 0.433 mM); in data set [17], 2900 µg/mL (≈ 8.37 mM). Further, the INH is above 10 µM in the data set filed under Homo sapiens [19] and 1.3 µM in data set [20]. Moreover, the efflux ratio in data set [22] was 3.5. Moreover, the fraction unbound in data set [23] came out at 0.88; in [24], 0.78; in [25] it was 0.46. Also, in the data set listed under Homo sapiens [26], the Selectivity ratio was above 1000. For the same molecule, the outcome in the data set on Pancreatic islet was Active.
Turning to `Nc1ncnc2c1nnn2CC1CCCCO1` (centres undefined), in [3], the microsomal CLint is below 7.2 µL/min/mg.
Consider `Nc1nc(C2CC2)nc2c1nnn2Cc1ccc(Cl)cc1`, for which, in [3], the microsomal CLint was below 7.2 µL/min/mg.
`Nc1nc(C(F)(F)F)nc2c1nnn2C[C@H]1CCCO1`: the values for the Vd in [11] and in data set [12] were 1.4 L/kg and 1.7 L/kg, respectively. Besides, the clearance in data set [1] came out at 61 mL/min/kg; in data set [5] it was 22 mL/min/kg. The bioavailability in data set [4] turned out to be 17%; in [13], 13%.
In turn, `FC(F)(F)c1nc(NCc2cccnc2)c2nnn(CC3CCCCO3)c2n1` (centres undefined) had an IC50 in data set [9] above 420 nM.
For the molecule `Nc1nc(C2CC2)nc2c1nnn2C[C@H]1CN(Cc2ncccn2)CCO1`, the clearance is 124 mL/min/kg in data set [1] and 7 mL/min/kg in [5]. Besides, the microsomal CLint was 75 µL/min/mg in data set [2] and 16 µL/min/mg in data set [3]. The Activity entry (in data set [6]; in the data set with Salmonella typhimurium) was “Non-toxic” throughout.
Regarding `CCc1csc(CN2CCO[C@@H](Cn3nnc4c(N)nc(C)nc43)C2)n1`, the clearance in [1] stood at 24 mL/min/kg; in data set [5], 5.6 mL/min/kg. Besides, the microsomal CLint in [2] is 22 µL/min/mg; in data set [3], 15 µL/min/mg. The bioavailability in data set [4] was determined as 45%. Moreover, the Activity entry (in [6]; with Salmonella typhimurium) was “Non-toxic” in each case.
As to `COCc1nc(N)c2nnn(CC3CCCCO3)c2n1` (centres undefined), the microsomal CLint in [3] was below 7.2 µL/min/mg.
For the molecule `Nc1nc(C2CC2)nc2c1nnn2C[C@H]1CN(Cc2nccs2)CCO1`, the clearance in data set [1] stood at 72 mL/min/kg. The microsomal CLint is 50 µL/min/mg in data set [2] and 20 µL/min/mg in data set [3]. This molecule also yielded a bioavailability in [4] of 20%. The Activity entry (in data set [6]; with Salmonella typhimurium) was “Non-toxic” throughout.
For the molecule `Nc1nc(C2CC2)nc2c1nnn2C[C@@H]1CCN(Cc2nccs2)C1`, the inhibition worked out at 52% in data set [7] and 62% in data set [8]. Further, the figures for the microsomal CLint in [2] and in data set [3] were 230 µL/min/mg and 30 µL/min/mg, respectively. The molecule further returned an IC50 in data set [9] of 206 nM.
Turning to `Nc1nc(C(F)(F)F)nc2c1nnn2C[C@H]1CN(Cc2ccccn2)CCO1`, the values for the clearance in [1] and in [5] were 121 mL/min/kg and 8.5 mL/min/kg, respectively. In addition, the microsomal CLint in [2] and in data set [3] was 36 µL/min/mg each time. In addition, the Activity entry (in [6]; in the data set on Salmonella typhimurium) was “Non-toxic” each time.
With `CCc1cnc(N2CC[C@@H](Cn3nnc4c(N)nc(C5CC5)nc43)C2)nc1`, the microsomal CLint in data set [2] came out at 244 µL/min/mg; in data set [3] it was 52 µL/min/mg.
`CC(C)n1cc(Cn2nnc3c(N)nc(C4CC4)nc32)cn1`: in [3], the microsomal CLint is below 7.2 µL/min/mg.
